Holding throughout (assay): inhibition of tumour cell growth, NCI panel, 48 h
Test [1] concerns HCC-2998 colon.
Test [2] deals with HT29 colon.
The test system of test [3] is K-562 leukemia.
The subject of test [4] is NCI-H460 lung.
Test [5] has as its system OVCAR-8 ovarian.
The test system of test [6] is SF-268 CNS.
In test [7] the test system is SK-OV-3 ovarian.
Test [8] has as its system SNB-19 CNS.
Test [9] concerns NCI-H226 lung.
The test system of test [10] is OVCAR-5 ovarian.

SMILES strings stand for the structures.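 Following 48 hours of exposure in 96-well plates, responses at five concentrations were used to interpolate endpoints linearly. The concentration for 50% growth inhibition is given as GI50. TGI: concentration producing complete growth inhibition.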 A value given as a limit tells only on which side of the number the result lay.

For `Cc1ccc(/C=C2\CCCC\C2=N\O)cc1`, the TGI in test [1], in test [2], in test [3], in test [4], in test [5] and in test [6] was greater than 100 µM each time. Besides, the TGI in [7] and in test [8] was greater than 100 µM in each case.
As to `COc1cccc2c(=O)c3c(sc12)c(NCCN(C)C)nc1ccccc13`, the GI50 was 1.47 µM in [1]; 0.648 µM in [2]; 1.02 µM in test [3]; 1.75 µM in [9]; 1.34 µM in test [4]; 1.65 µM in test [10]. The values for the GI50 in [5] and in test [6] were 1.26 µM and 1.6 µM, respectively. For the same compound, the TGI was 3.02 µM in test [1]; 2.12 µM in test [2]; 2.8 µM in [3]; 4.03 µM in [9]; 2.88 µM in [4]; 3.3 µM in test [10]. In addition, the TGI amounted to 2.93 µM in test [5] and 3.57 µM in [6].
For `C=C1C(=O)O[C@H]2[C@H]1CC/C(CNS(=O)(=O)c1cccc3ccccc13)=C\CC[C@@]1(C)O[C@@H]21`, the GI50 in test [1] was 2.16 µM; in test [2], 1.85 µM; in [9], 13.2 µM; in test [4], 4.28 µM; in [10], 2.84 µM; in test [5], 2.52 µM. Besides, the GI50 in test [6] is 3.74 µM; in [7], 12.1 µM; in test [8], 5.44 µM. Besides, the TGI was found to be 4.87 µM in test [1]; 3.86 µM in test [2]; 33 µM in [9]; 17 µM in test [4]; 8.44 µM in test [10]; 9.16 µM in test [5]. Besides, the TGI in test [6] worked out at 15.1 µM; in test [7], 24.5 µM; in [8] it was 19.8 µM.
Regarding `CS/C(c1ccccc1)=[N+](/C)[O-]`, the TGI in test [1] is greater than 100 µM; in test [2] it was greater than 100 µM; in [3], greater than 100 µM; in test [4] it was 99.4 µM; in test [10], greater than 100 µM; in test [5] it was greater than 100 µM. For the same compound, the TGI in test [6], in [7] and in test [8] was greater than 100 µM each time.
For the compound `CN(C)CCNC(=O)c1cc2c3ccccc3[nH]c2c2ncccc12`, the GI50 in test [2] is 5.27 µM; in test [3] it was 9.05 µM; in test [9], 9.8 µM; in [4] it was 4.17 µM; in test [10], 20.6 µM; in test [5] it was 6.11 µM. For the same compound, the GI50 in test [6] is 6.37 µM; in test [7], 23.5 µM; in test [8] it was 14.7 µM. The TGI in [2] was 34.1 µM; in test [3], 26.2 µM; in test [9], 39.6 µM; in test [4] it was 18.4 µM; in test [10] it was 68.3 µM; in test [5] it was 40.9 µM. For the same compound, the TGI is 23.7 µM in test [6], greater than 100 µM in [7] and 93.2 µM in test [8].
For the compound `N#C[S-].[Au+].c1ccc(CN2[CH-]N(Cc3ccccc3)C(c3ccccc3)=C2c2ccccc2)cc1`, the GI50 in [10] is 1.21 µM; in test [6] it was 0.431 µM; in [7], 0.391 µM. The TGI in test [10] was 3.28 µM; in [6] it was 2.49 µM; in test [7], 3.63 µM.
Take `O=C1C[C@@H]2CCCC[C@@H]2C12SCCS2`: the TGI in test [1], in test [3], in [4], in [10], in [5] and in [6] was greater than 100 µM throughout. Also, the TGI in test [7] and in [8] was greater than 100 µM throughout.
In the case of `COc1cc2cccc(NC(=O)c3cc(OC)c(OC)c(OC)c3Br)c2cc1OC`, the TGI in [1] was 85.4 µM; in test [2] it was 71.9 µM; in [3], 46.6 µM; in [4] it was 36.5 µM; in test [10], 51.9 µM; in [5], 85.4 µM. The TGI in test [6] is 59.3 µM; in [7], 59.2 µM; in test [8] it was greater than 100 µM.
Turning to `O=C1C[C@H]2CC3(CC[C@H]2CN1)OCCO3`, the TGI in [1], in test [2], in test [3], in test [4], in test [5] and in [6] was greater than 100 µM in each case. Besides, the TGI in [7] and in [8] was greater than 100 µM in each case.
For the compound `O=C(NCP(=O)(O)O)c1cccnc1`, the TGI in [2], in [3], in test [9], in [4], in test [10] and in test [5] was greater than 100 µM each time. For the same compound, the TGI in test [7] and in test [8] was greater than 100 µM each time.
On to `CCOC(=O)NC(=O)c1cn(CCN2CCN(C(=O)NCCCCCCNC(=O)N3CCN(CCn4cc(C(=O)NC(=O)OCC)c(=O)n(CCN(CC)CC)c4=O)CC3)CC2)c(=O)n(CCC(CC)CC)c1=O`, for which the TGI in test [1], in [2], in [3], in test [4], in test [10] and in test [5] was greater than 100 µM each time. Besides, the TGI in test [6], in [7] and in test [8] was greater than 100 µM throughout.
As to `COc1cc([N+](=O)[O-])c(OC)cc1-c1nc2sc(Cl)cn2c1/C=N/NC(=N)N/N=C/c1c(-c2cc(OC)c([N+](=O)[O-])cc2OC)nc2sc(Cl)cn12`, the GI50 was 1.69 µM in test [1], 3.78 µM in test [2], 2.57 µM in [4] and 1.71 µM in [10]. The TGI in test [1] was 3.15 µM; in [2], greater than 100 µM; in test [4] it was 7.13 µM; in test [10], 3.16 µM.

The record behind these values is PubChem BioAssay (NCI).
